We go through 2 compounds from PMC8459971, “Evaluation of the hepatotoxicity of the novel GPR40 (FFAR1) agonist CPL207280 in the rat and monkey” (PLoS ONE, 2021).

Several values for one entry are separate records, joined by “and”; a condition that tells them apart may be missing. Equal entries are not always repeated.

Series [1] in a line: Metabolite profiling, human hepatocytes. Type of series: in vitro ADME. The settings on record: human hepatocytes, 10 μM CPL207280, 60 min; ND = not detected. The procedure: (§1) Suspensions of cryopreserved human, rat, and monkey hepatocytes were pooled from a minimum of three individuals. All cryopreserved hepatocytes were purchased from a commercial supplier. […] The cell density was 0.5 ×10^6 viable cells/mL. The final DMSO concentration during the incubation was 0.25%. Control incubations were performed in lysed cells to reveal any non-enzymatic degradation. Two control compounds were identified in each species. Samples (50 μL) were removed from the incubation mixture at 0, 10, 20, 40, 60, and 120 min and added to methanol containing an internal standard (100 μL) to stop the reaction. The samples were centrifuged (4000 x g at 4°C for 30 min) and the supernatants at each time point were pooled for analysis by LC MS/MS using Cyprotex generic methods. Following hepatocyte stability assays, the samples were utilized for metabolite profiling. […] Metabolites were characterized using a mass spectrometer comprising Waters Xevo QT of G2-S, Acquity Binary Solvent Manager, Acquity Column Manager, and 2777 Autosampler.

Series [2] can be described thus: Metabolite profiling, rat hepatocytes. In kind it is in vitro ADME. The settings on record: 10 μM CPL207280, 120 min, ND = not detected. The procedure:
as §1

The target in series [3] is MRP3 (Homo sapiens, UniProt O15438). Description: Vesicular transport inhibition assay, MRP3.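 Also: membrane vesicles with radiolabelled probe substrate and 2 mM glutathione, 4 mM ATP versus AMP background control, vesicle-trapped substrate quantified by liquid scintillation counting after filtration; ATP 4 mM vs AMP background separates transporter uptake from diffusion.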 The conditions noted are these: MRP3; reference inhibitor 150 µM.
Chain of MRP3 (O15438 whole entry, the tested form may be a part): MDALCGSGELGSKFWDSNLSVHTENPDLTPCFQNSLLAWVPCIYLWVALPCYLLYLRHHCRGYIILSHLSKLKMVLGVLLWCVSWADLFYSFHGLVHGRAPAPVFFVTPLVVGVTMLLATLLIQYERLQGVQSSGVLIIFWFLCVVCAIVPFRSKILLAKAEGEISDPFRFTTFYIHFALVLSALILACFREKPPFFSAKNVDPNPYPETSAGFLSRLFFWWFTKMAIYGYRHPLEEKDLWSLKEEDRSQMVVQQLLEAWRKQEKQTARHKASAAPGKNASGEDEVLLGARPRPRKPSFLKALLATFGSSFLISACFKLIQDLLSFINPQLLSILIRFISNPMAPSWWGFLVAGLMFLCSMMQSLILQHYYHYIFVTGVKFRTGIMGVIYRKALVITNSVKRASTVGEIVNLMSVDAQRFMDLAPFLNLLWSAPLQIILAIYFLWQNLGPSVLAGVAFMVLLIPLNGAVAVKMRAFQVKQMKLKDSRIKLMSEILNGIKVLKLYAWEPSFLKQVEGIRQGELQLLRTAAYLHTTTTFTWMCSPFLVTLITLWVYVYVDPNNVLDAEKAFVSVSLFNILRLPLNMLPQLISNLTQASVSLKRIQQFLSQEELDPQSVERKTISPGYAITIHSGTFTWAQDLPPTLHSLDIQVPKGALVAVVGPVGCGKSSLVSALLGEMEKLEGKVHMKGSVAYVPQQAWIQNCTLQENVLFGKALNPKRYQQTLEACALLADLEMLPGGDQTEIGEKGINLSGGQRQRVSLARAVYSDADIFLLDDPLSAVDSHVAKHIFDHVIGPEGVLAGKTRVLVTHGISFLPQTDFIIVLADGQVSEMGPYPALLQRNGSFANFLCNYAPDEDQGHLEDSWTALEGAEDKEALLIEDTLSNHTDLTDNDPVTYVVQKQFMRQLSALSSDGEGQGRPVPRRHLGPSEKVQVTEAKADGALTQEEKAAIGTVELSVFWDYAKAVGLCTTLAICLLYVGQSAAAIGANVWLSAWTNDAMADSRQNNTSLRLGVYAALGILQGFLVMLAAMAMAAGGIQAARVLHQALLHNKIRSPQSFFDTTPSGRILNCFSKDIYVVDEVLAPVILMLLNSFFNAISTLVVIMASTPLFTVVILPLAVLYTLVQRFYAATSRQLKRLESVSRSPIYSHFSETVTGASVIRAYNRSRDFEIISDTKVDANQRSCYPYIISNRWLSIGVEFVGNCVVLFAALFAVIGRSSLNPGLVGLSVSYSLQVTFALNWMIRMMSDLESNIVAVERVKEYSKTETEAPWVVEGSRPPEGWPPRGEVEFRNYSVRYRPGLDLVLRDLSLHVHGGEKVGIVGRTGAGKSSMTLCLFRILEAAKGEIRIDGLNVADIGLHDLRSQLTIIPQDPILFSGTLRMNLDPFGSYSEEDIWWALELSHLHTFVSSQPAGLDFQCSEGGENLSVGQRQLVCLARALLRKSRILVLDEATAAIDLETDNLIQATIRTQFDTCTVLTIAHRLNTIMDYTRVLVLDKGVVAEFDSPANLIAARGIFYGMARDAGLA
Method: (§2) In the vesicular transport inhibition assay (for BSEP, MRP) compounds were incubated with membrane vesicle preparations and the probe substrate. Incubations were carried out in the presence of 4 mM ATP or AMP to distinguish between transporter-mediated uptake and passive diffusion into the vesicles. For MRP2 and MRP3, reactions were carried out in the presence of 2 mM glutathione. Compounds were added to the reaction mixture in 0.75 μL of solvent (1% of the final incubation volume). […] Reactions were initiated by the addition of 25 μL of 12 mM MgATP (or 12 mM AMP in assay buffer as a background control) and preincubated separately. Reactions were quenched by the addition of 200 μL of ice-cold washing buffer and immediate filtration via glass fiber filters mounted on a 96-well plate (filter plate). The filters were washed (5 × 200 μL of ice-cold washing buffer), dried, and the amount of substrate inside the filtered vesicles was determined by liquid scintillation counting.
The target of series [4] is T1, MRP4 (Homo sapiens, UniProt O15439).
T1 sequence (O15439 1-1325): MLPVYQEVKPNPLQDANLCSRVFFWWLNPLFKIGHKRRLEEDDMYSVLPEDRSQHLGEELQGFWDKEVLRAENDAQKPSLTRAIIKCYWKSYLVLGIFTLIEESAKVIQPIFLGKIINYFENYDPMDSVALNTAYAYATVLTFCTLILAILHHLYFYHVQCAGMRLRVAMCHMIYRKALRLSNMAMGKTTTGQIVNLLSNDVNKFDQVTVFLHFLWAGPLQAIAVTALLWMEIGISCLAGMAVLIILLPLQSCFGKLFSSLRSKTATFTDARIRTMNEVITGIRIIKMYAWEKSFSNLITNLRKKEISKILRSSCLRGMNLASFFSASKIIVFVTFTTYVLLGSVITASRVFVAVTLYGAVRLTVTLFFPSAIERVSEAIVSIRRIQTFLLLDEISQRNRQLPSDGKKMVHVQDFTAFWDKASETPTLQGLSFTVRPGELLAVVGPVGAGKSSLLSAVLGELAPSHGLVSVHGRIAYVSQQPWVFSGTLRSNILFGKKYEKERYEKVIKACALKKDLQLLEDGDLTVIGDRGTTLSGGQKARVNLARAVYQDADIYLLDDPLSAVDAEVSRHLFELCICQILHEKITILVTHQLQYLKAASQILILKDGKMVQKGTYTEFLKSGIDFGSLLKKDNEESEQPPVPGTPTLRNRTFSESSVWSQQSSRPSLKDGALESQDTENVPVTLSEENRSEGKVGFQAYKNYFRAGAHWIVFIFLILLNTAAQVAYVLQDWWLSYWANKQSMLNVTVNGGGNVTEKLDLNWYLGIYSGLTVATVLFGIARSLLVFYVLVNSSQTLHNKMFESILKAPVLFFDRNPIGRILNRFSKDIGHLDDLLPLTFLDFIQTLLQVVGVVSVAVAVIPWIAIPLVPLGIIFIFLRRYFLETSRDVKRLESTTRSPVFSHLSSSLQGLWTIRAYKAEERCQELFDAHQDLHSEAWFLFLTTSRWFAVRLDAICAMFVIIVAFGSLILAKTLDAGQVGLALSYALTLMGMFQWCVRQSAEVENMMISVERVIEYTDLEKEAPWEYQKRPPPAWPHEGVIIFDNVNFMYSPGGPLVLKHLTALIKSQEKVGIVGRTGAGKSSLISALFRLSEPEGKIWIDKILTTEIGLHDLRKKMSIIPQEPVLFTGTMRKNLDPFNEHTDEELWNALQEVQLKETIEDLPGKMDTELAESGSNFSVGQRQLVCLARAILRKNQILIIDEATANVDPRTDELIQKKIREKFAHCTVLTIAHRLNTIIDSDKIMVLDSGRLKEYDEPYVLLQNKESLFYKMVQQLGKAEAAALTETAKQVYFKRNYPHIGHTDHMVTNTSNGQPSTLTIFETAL
Nature of the series: Vesicular transport inhibition assay, MRP4.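 Also: membrane vesicles with MRP4 incubated with compound and probe substrate plus 4 mM ATP, or AMP as passive-diffusion background, vesicular substrate uptake read by liquid scintillation counting; ATP 4 mM vs AMP background separates transporter uptake from diffusion.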 The conditions noted are these: MRP4; reference inhibitor 150 µM.
Method: as §2

For `CC#CC(CC(=O)OC1OC(C(=O)O)C(O)C(O)C1O)c1ccc(OCC(C)=C(C)C)cc1` (stereo not drawn) [M15], the “human % of parent at 60 min” value in series [1] is listed as 1.44%. For the same compound, in series [2], the “rat % of parent at 120 min” value stood at 2.88%.
Take `CN(C)C(=O)CCSC(SCCC(=O)O)c1cccc(/C=C/c2ccc3ccc(Cl)cc3n2)c1` (stereo not drawn) [MK571]: the “Accumulation (counts per minute; CPM) with AMP” value was 193 CPM and 200 CPM and 153 CPM and 106 CPM in series [3]; 1227 CPM and 1197 CPM in series [4]. Further, the “Accumulation (counts per minute; CPM) with ATP” value in series [3] is 299 CPM and 302 CPM and 151 CPM and 183 CPM; in series [4] it was 1356 CPM and 1304 CPM.
